Test results: patent US11739070B2, “C5A receptor modulators” (IDORSIA PHARMACEUTICALS LTD, priority 2018, dated 2023)

Molecular target: T1, C5AR1 (Homo sapiens, UniProt P21730)
T1 construct: host or cells: CHO-K1
T1 sequence (P21730 1-350): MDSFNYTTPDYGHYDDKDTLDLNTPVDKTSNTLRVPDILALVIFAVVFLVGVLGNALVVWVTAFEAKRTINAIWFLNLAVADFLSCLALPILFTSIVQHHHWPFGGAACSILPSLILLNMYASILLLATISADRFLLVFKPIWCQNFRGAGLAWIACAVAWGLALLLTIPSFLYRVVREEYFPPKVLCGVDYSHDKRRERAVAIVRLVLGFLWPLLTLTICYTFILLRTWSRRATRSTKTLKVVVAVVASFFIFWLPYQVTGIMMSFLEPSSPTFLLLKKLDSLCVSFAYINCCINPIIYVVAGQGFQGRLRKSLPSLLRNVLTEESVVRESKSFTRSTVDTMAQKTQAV
Test: hC5a DISCO IC50 assay (PathHunter beta-arrestin, antagonist mode)
Assay type: cell-based
Settings: CHO-K1 C5AR1 beta-arrestin cell line; antagonist vs 1-10 nM C5a agonist; geometric mean values; read-out: C5aR IC50
Outline: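 Antagonist added first, then 1-10 nM C5a agonist; cells incubated 1.5 h at 37 °C. Beta-arrestin signal developed with PathHunter detection reagent, 45 min at RT. IC50 in nmol/l from serial antagonist dilutions, reported as geometric mean of several measurements.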

| IC50 | Compound |
| --- | --- |
| 0.027 µM | COc1cccc2c1n(Cc1ccccc1C(F)(F)F)c(=O)n2C1CCN(c2c(C)cccc2F)CC1F (stereo not drawn) [Example 211, 1-[3-Fluoro-1-(2-fluoro-6-methyl-phenyl)-piperidin-4-yl]-4-methoxy-3-(2-trifluoromethyl-benzyl)-1,3-dihydro-benzoimidazol-2-one] |
| 2.08 µM | COc1cccc2c1n(Cc1ccccc1C(F)(F)F)c(=O)n2C1CCCN(c2c(C)cccc2F)C1 (stereo not drawn) [Example 212, 1-[1-(2-Fluoro-6-methyl-phenyl)-piperidin-3-yl]-4-methoxy-3-(2-trifluoromethyl-benzyl)-1,3-dihydro-benzoimidazol-2-one] |
| 0.469 µM | COc1cccc2c1n(Cc1ccccc1C(F)(F)F)c(=O)n2C1CN(C(=O)OC(C)(C)C)C1 [Example 213, 3-[4-Methoxy-2-oxo-3-(2-trifluoromethyl-benzyl)-2,3-dihydro-benzoimidazol-1-yl]-azetidine-1-carboxylic acid tert-butyl ester] |
| 0.205 µM | COc1cccc2c1n(Cc1ccccc1C(F)(F)F)c(=O)n2C1CCCN(C(=O)OC(C)(C)C)C1 (stereo not drawn) [Example 214, 3-[4-Methoxy-2-oxo-3-(2-trifluoromethyl-benzyl)-2,3-dihydro-benzoimidazol-1-yl]-piperidine-1-carboxylic acid tert-butyl ester] |
| 0.027 µM | COc1cccc2c1n(Cc1ccccc1C(F)(F)F)c(=O)n2C1CN(c2c(C)cccc2F)C1 [Example 215, 1-[1-(2-Fluoro-6-methyl-phenyl)-azetidin-3-yl]-4-methoxy-3-(2-trifluoromethyl-benzyl)-1,3-dihydro-benzoimidazol-2-one] |
| 0.012 µM | COc1cccc2c1n(Cc1ncccc1C(F)(F)F)c(=O)n2C1CCN(c2c(C)cccc2F)CC1 [Example 216, 1-[1-(2-Fluoro-6-methyl-phenyl)-piperidin-4-yl]-4-methoxy-3-(3-trifluoromethyl-pyridin-2-ylmethyl)-1,3-dihydro-benzoimidazol-2-one] |
| 0.158 µM | COc1cccc2c1n(Cc1ccccc1C(F)(F)F)c(=O)n2C1CCCN(c2c(C)cccc2C)C1 (stereo not drawn) [Example 217, 1-[1-(2,6-Dimethyl-phenyl)-piperidin-3-yl]-4-methoxy-3-(2-trifluoromethyl-benzyl)-1,3-dihydro-benzoimidazol-2-one] |
| 0.346 µM | COc1cccc2c1n(Cc1csc(C(F)(F)F)n1)c(=O)n2[C@@H]1CCN(c2c(C)cccc2F)C1 [Example 218, 1-[(R)-1-(2-Fluoro-6-methyl-phenyl)-pyrrolidin-3-yl]-4-methoxy-3-(2-trifluoromethyl-thiazol-4-ylmethyl)-1,3-dihydro-benzoimidazol-2-one] |
| 0.034 µM | COc1cccc2c1n([C@@H](C)c1ccccc1C(F)(F)F)c(=O)n2C1CCN(c2c(C)cccc2F)C1 (stereo partly drawn) [Example 219, 1-[1-(2-Fluoro-6-methyl-phenyl)-pyrrolidin-3-yl]-4-methoxy-3-[(S)-1-(2-trifluoromethyl-phenyl)-ethyl]-1,3-dihydro-benzoimidazol-2-one] |
| 0.109 µM | COc1cccc2c1n(Cc1c(F)cc(F)cc1OC(C)C)c(=O)n2[C@@H]1CCN(c2c(C)cccc2F)C1 [Example 220, 3-(2,4-Difluoro-6-isopropoxy-benzyl)-1-[(R)-1-(2-fluoro-6-methyl-phenyl)-pyrrolidin-3-yl]-4-methoxy-1,3-dihydro-benzoimidazol-2-one] |
| 0.175 µM | COc1cccc2c1n(Cc1sc(C)nc1C(F)(F)F)c(=O)n2[C@@H]1CCN(c2c(C)cccc2F)C1 [Example 221, 1-[(R)-1-(2-Fluoro-6-methyl-phenyl)-pyrrolidin-3-yl]-4-methoxy-3-(2-methyl-4-trifluoromethyl-thiazol-5-ylmethyl)-1,3-dihydro-benzoimidazol-2-one] |
| 2.65 µM | COc1cccc2c1n(Cc1ccccc1C(F)(F)F)c(=O)n2C1CCN(C(=O)C2CC2)CC1 [Example 222, 1-(1-Cyclopropanecarbonyl-piperidin-4-yl)-4-methoxy-3-(2-trifluoromethyl-benzyl)-1,3-dihydro-benzoimidazol-2-one] |
